Measured values reported in paper PMC6479714, “Multiplex Analysis Platform for Endocrine Disruption Prediction Using Zebrafish” (International Journal of Molecular Sciences, 2019).
Where “and” joins values, the source holds several entries; their conditions need not be identical. Equal values may be shown once. Read-outs that look alike come from different tables or passages of the source.

Assays:
cyp19a1b - fluorescence = details: 0-96 h, cited from earlier work; for LogEC50 (cyp19a1b - fluorescence): log of EC50 in μM
cyp19a1b - mRNA [1] = details: 14 days (adults), cited from earlier work
vtg - blood [2] = details: cited from earlier work; for LogEC50 (vtg - blood): log of EC50 in μM
vtg - blood [3] = details: 43 days (adults), cited from earlier work
cyp19a1b - mRNA [4] = details: cited from earlier work; for LogEC50 (cyp19a1b - mRNA): log of EC50 in μM
vitellogenin 1 (vtg1) = experiment: vtg1 gene expression (qPCR) in exposed zebrafish embryos
vtg1 - mRNA = details: 0-168 h; ref [10] (supplement list: Chen 2018); cited from earlier work
vtg - mRNA = details: 14 days (juveniles), cited from earlier work
ERE-GFP - fluorescence = details: 0-120 h, cited from earlier work
[5] = test system: brain aromatase (cyp19a1b); experiment: cyp19a1b gene expression (qPCR) in exposed zebrafish embryos; format: in vivo, zebrafish (Danio rerio)
[6] = acute toxicity test from 48–120 hpf based on the OECD FET test; format: in vivo, zebrafish (Danio rerio); details: in vivo; zebrafish embryos exposed 48–120 hpf
Description: Twenty embryos per treatment were exposed to 5 concentrations of compound of interest in a 10× dilution factor from 48–120 hpf, which is the experimental time in which EDCs will be screened posteriorly. Embryos were exposed from 48–120 hpf rather than 0–96 hpf or 0–120 hpf to avoid unspecific toxicity outside of the EDC testing period, which have been chosen on the basis that endocrine pathways, e.g., thyroid metabolism, are not fully functional until 40–55 hpf in zebrafish embryos. Stock solutions of chemicals to be tested were freshly prepared in exposure medium. The highest concentration for each compound was selected according to its water solubility (Table S1). Exposures were performed in glass vessels to assure maximum bioavailability for hydrophobic compounds, and medium was not exchanged during the experiment.

dio2 - mRNA = test system: dio2 - mRNA; set-up: method as in earlier work; details: 0-120 h, ref [33] (supplement list), cited from earlier work
thyroid receptor α (trα) = experiment: trα gene expression (qPCR) in exposed zebrafish embryos; format: in vivo, zebrafish (Danio rerio); details: exposed 48–120 hpf
[7] = test system: iodothyronine deiodinase 2 (dio2); experiment: dio2 gene expression (qPCR) in exposed zebrafish embryos; format: in vivo, zebrafish (Danio rerio)
transthyretin (ttr) = experiment: ttr gene expression (qPCR) in exposed zebrafish embryos; format: in vivo, zebrafish (Danio rerio); details: exposed 48–120 hpf
tpo - mRNA = details: 48-120 h, ref [32] (supplement list), cited from earlier work
thyroid peroxidase (tpo) = experiment: tpo gene expression (qPCR) in exposed zebrafish embryos; format: in vivo, zebrafish (Danio rerio); details: for EC50: Danio rerio, read-out: EC50 tpo
[8] = listed physicochemical property, source not given; cited from earlier work
sult2st3 - cyp2k22 mRNA [9] = details: 96-120 h, ref [31] (supplement list), cited from earlier work
sult2st3 - cyp2k22 mRNA [10] = experiment: androgenic markers considered together (sult2st3 - cyp2k22 mRNA), zebrafish embryos
[11] = test system: cytosolic sulfotransferase 2 family 2 (sult2st3); experiment: sult2st3 gene expression (qPCR) in exposed zebrafish embryos; format: in vivo, zebrafish (Danio rerio)
[12] = test system: cytochrome P450 2k22 (cyp2k22); experiment: cyp2k22 gene expression (qPCR) in exposed zebrafish embryos
cyp19a1b - vtg1 mRNA = experiment: estrogenic markers considered together (cyp19a1b - vtg1 mRNA), zebrafish embryos
[13] = ref [3] (supplement list: Brion 2012)
[14] = * mean of an approximate range, ref [21] (supplement list: Molina 2018)
[15] = log of EC50 in μM, ref [21] (supplement list)
[16] = log of EC50 in μM, 48-120 h, our study
[17] = exposed 48–120 hpf, times above controls

For `CC(C)(c1ccc(O)cc1)c1ccc(O)cc1` [BPA, bisphenol A], the EC50 (cyp19a1b - fluorescence; * mean of an approximate range, ref [18] (supplement list: Le Fol 2017)) is listed as about 6.25 µM, the EC50 (cyp19a1b - fluorescence; ref [2] (supplement list: Petersen 2013)) is listed as 7.4 µM and the EC50 (cyp19a1b - fluorescence; [13]) is listed as 3.3 µM. The “LogEC50 (cyp19a1b - fluorescence)” value (cyp19a1b - fluorescence; ref [2] (supplement list)) was 0.8692, the “LogEC50 (cyp19a1b - fluorescence)” value (cyp19a1b - fluorescence; ref [3] (supplement list)) was 0.5185 and the “LogEC50 (cyp19a1b - fluorescence)” value (cyp19a1b - fluorescence; ref [18] (supplement list)) was 0.7959. The EC50 (cyp19a1b - mRNA [1]; [14]) was about 0.024 µM, the “LogEC50 (cyp19a1b - mRNA)” value (cyp19a1b - mRNA [1]; [15]) was -1.62 and the EC50 (vtg - blood [2]; 14 days (adults), ref [14] (supplement list: Brian 2005)) was 0.65 µM. For the same compound, the EC50 (vtg - blood [2]; 28 days (juveniles), * mean of an approximate range, ref [13] (supplement list: Van den Belt 2004)) was about 2.63 µM, the “LogEC50 (vtg - blood)” value (vtg - blood [2]; 14 days (adults), ref [14] (supplement list)) was -0.1871 and the “LogEC50 (vtg - blood)” value (vtg - blood [2]; ref [13] (supplement list)) was 0.42. For the same compound, the EC50 (vtg - blood [3]; * mean of an approximate range, ref [22] (supplement list: Sohoni 2001), read-out: EC50 (vtg - blood)) was about 1.75 µM, the “LogEC50 (vtg - blood)” value (vtg - blood [3]; log of EC50 in μM, ref [22] (supplement list)) was 0.243 and the EC50 (cyp19a1b - mRNA [4]; 0-72 h, ref [20] (supplement list: Saeed 2016)) was 0.22 µM. The EC50 (cyp19a1b - mRNA [4]; 72-96 h, * mean of an approximate range, ref [5] (supplement list: Chung 2011)) was about 3 µM, the “LogEC50 (cyp19a1b - mRNA)” value (cyp19a1b - mRNA [4]; 0-72 h, ref [20] (supplement list)) was -0.6576 and the “LogEC50 (cyp19a1b - mRNA)” value (cyp19a1b - mRNA [4]; 72-96 h, ref [5] (supplement list)) was 0.4771. The “EC50 (vtg1 - mRNA), class symbol” value (vitellogenin 1 (vtg1); 48-120 h, our study) was “n.e”, the “effect on expression of vtg1” value (vitellogenin 1 (vtg1); exposed 48–120 hpf) was “did not affect” and the “EC50 (vtg1 - mRNA), class symbol” value (vtg1 - mRNA) was “n.e”. The EC50 (vtg - mRNA; [14]) was about 0.24 µM, the “LogEC50 (vtg - mRNA)” value (vtg - mRNA; [15]) was -0.6198 and the EC50 (ERE-GFP - fluorescence; ref [19] (supplement list: Green 2016)) was 1.23 µM. For the same compound, the “LogEC50 (ERE-GFP - fluorescence)” value (ERE-GFP - fluorescence; log of EC50 in μM, ref [19] (supplement list)) was 0.08991, the EC50 ([5]; Danio rerio, zebrafish embryos exposed 48–120 hpf, mRNA by qPCR) was 4.99 µM and the “LogEC50 (cyp19a1b mRNA)” value [5, 16] was 0.6981. The LC50 [6] was 41.6 µM.

In the case of `CCCCC(O)(Cn1cncn1)c1ccc(Cl)cc1Cl` (centres unmarked) [HEX, hexaconazole], the EC50 (dio2 - mRNA; * mean of an approximate range) is given as about 3.98 µM, the “LogEC50 (dio2 - mRNA)” value (dio2 - mRNA; log of EC50 in μM) is given as 0.5999 and the “effect on trα expression” value (thyroid receptor α (trα)) is given as “remained unaltered”. The EC50 ([7]; Danio rerio, zebrafish embryos exposed 48–120 hpf, mRNA by qPCR, read-out: EC50 dio2) was 2.22 µM, the “LogEC50 (dio2 - mRNA)” value [7, 16] was 0.3464 and the LC50 [6] was 23.4 µM. The “effect on ttr expression” value (transthyretin (ttr)) was “remained unaltered”.

In the case of `Cn1cc[nH]c1=S` [MMI, methimazole], the EC50 (tpo - mRNA; main text refs 25, 29) is listed as 487 µM, the “LogEC50 (tpo - mRNA)” value (tpo - mRNA; log of EC50 in μM) is listed as 2.688 and the “effect on trα expression” value (thyroid receptor α (trα)) is listed as “None of the other three remaining thyroid markers analyzed were affected”. For the same compound, the EC50 (thyroid peroxidase (tpo); zebrafish embryos exposed 48–120 hpf, mRNA by qPCR) was 397 µM, the “LogEC50 (tpo - mRNA)” value (thyroid peroxidase (tpo); [16]) was 2.599 and the Water solubility [8] was 277.5 mg/mL. The “effect on dio2 expression” value ([7]; exposed 48–120 hpf) was “None of the other three remaining thyroid markers analyzed were affected” and the “effect on ttr expression” value (transthyretin (ttr)) was “None of the other three remaining thyroid markers analyzed were affected”.

In the case of `C[C@]12CC[C@H]3[C@@H](CCC4=CC(=O)CC[C@@]43C)[C@@H]1CC[C@@H]2O` [TES, testosterone], the EC50 (cyp19a1b - fluorescence; [13]) is given as 1.03 µM, the “LogEC50 (cyp19a1b - fluorescence)” value (cyp19a1b - fluorescence; ref [3] (supplement list)) is given as 0.01284 and the “LogEC50 (sult2st3 - cyp2k22 mRNA)” value (sult2st3 - cyp2k22 mRNA [9]; log of EC50 in μM) is given as -1.222. For the same compound, the EC50 (sult2st3 - cyp2k22 mRNA [9]; read-out: EC50 (sult2st3 - cyp2k22 mRNA)) was 0.06 µM, the EC50 (sult2st3 - cyp2k22 mRNA [10]; Danio rerio, read-out: EC50 (sult2st3 - cyp2k22 mRNA)) was 0.44 µM and the “LogEC50 (sult2st3 - cyp2k22 mRNA)” value (sult2st3 - cyp2k22 mRNA [10]; [16]) was -0.3565. The EC50 ([11]; Danio rerio, read-out: EC50 sult2st3) was 0.14 µM, the “maximum FI / maximum average overexpression level above controls, sult2st3” value [11, 17] was 7.33 and 4.64–8.97 and the EC50 (cyp19a1b - mRNA [4]; 0-72 h, * mean of an approximate range, ref [27] (supplement list: Mouriec 2009)) was about 1 µM. The “LogEC50 (cyp19a1b - mRNA)” value (cyp19a1b - mRNA [4]; 0-72 h, ref [27] (supplement list)) was 0, the EC50 (thyroid peroxidase (tpo)) was 0.02 µM and the EC50 (vitellogenin 1 (vtg1); Danio rerio, read-out: EC50 vtg1) was 1.46 µM. For the same compound, the EC50 ([12]; Danio rerio, read-out: EC50 cyp2k22) was 0.74 µM, the “maximum average overexpression level above controls, cyp2k22” value [12, 17] was 4.01 and the EC50 (cyp19a1b - vtg1 mRNA; Danio rerio, read-out: EC50 (cyp19a1b - vtg1 mRNA)) was 1.11 µM. For the same compound, the “LogEC50 (cyp19a1b - vtg1 mRNA)” value (cyp19a1b - vtg1 mRNA; [16]) was 0.04532.
